According to ChEMBL document CHEMBL1142560, “Furocoumarin glycosides from the leaves of Ficus ruficaulis Merr. var. antaoensis” (J Nat Prod, 2005):

These compounds were tested on PBMC (assay: Antiproliferative activity against human PBMC upto 100 uM).
Assay type: cell-based; call rule not given here
In the case of `O=c1ccc2c(O[C@@H]3O[C@H](CO)[C@@H](O)[C@H](O)[C@H]3O)c(O[C@@H]3O[C@H](CO)[C@@H](O)[C@H](O)[C@H]3O)c3occc3c2o1`, the Activity is reported as “Not Active”.
`O=c1ccc2c(O)c3ccoc3c(O[C@@H]3O[C@H](CO)[C@@H](O)[C@H](O)[C@H]3O)c2o1` was tested, and the Activity was “Not Active”.
For `O=c1ccc2c(O[C@@H]3O[C@H](CO)[C@@H](O)[C@H](O)[C@H]3O)c3ccoc3c(O)c2o1`, the Activity was “Not Active”.
With `O=c1ccc2c(O)c(O[C@@H]3O[C@H](CO)[C@@H](O)[C@H](O)[C@H]3O)c3occc3c2o1` the Activity was “Not Active”.

Each compound was assayed on PBMC (assay: Antiproliferative activity against human PBMC).
Assay type: cell-based
`O=c1ccc2c(O[C@@H]3O[C@H](CO)[C@@H](O)[C@H](O)[C@H]3O)c(O)c3occc3c2o1` was tested, and the IC50 was 33.4 µM.
`C/C=C/C[C@@H](C)[C@@H](O)[C@H]1C(=O)N[C@@H](CC)C(=O)N(C)CC(=O)N(C)[C@@H](CC(C)C)C(=O)N[C@@H](C(C)C)C(=O)N(C)[C@@H](CC(C)C)C(=O)N[C@@H](C)C(=O)N[C@H](C)C(=O)N(C)[C@@H](CC(C)C)C(=O)N(C)[C@@H](CC(C)C)C(=O)N(C)[C@@H](C(C)C)C(=O)N1C` [CYCLOSPORINE] gave an IC50 of 0.012 µM.
